The term IC50 denotes the concentration that inhibits the measured activity by half.

Data set [1] deals with trifluridine resistant strain of cancer cell strain DLD-1. Put plainly: IC50 for trifluridine in the trifluridine resistant strain prepared from DLD-1. The settings on record: Homo sapiens; DLD-1 after maintenance culture for 6 months or more in the presence of trifluridine (about 10 mg/mL). In kind it is cell-based. The method, then: The cancer cell strain DLD-1 obtained from a cell bank such as ATCC or RIKEN was subjected to maintenance culture for 6 months or more in the presence of trifluridine (FTD) (Aldrich-Sigma) (about 10 mg/mL). The maintenance culture was subcultured about twice a week to maintain 60 to 80% confluence at 37° C. in a serum 10% added DMEM medium on a plastic dish.

In data set [2] the test system is DLD-1 cell strain, 5-FU resistant strain, FTD resistant strain. Also noted: methylation on microRNA, FTD resistant strain / miRNA methylation, FTD resistant strain: unit not given here. The note with it: for Rate of change, FTD resistance (fold) / Rate of change, FTD (fold): FTD resistant versus parental strain; for methylation on microRNA, FTD parental strain / methylation on microRNA, FTD resistant strain: RIP sequencing; for methylation on microRNA, FTD parental strain: DLD-1, FTD parental strain; for methylation on microRNA, FTD resistant strain: DLD-1 FTD resistant strain; for miRNA methylation, FTD parental strain / miRNA methylation, FTD resistant strain: miRNAs that decrease post-surgery. The protocol: For an original DLD-1 cell strain and each resistant strain (5-FU resistant strain and FTD resistant strain), RNA methylation analysis in accordance with the protocol for RIP sequencing described above and microarray or mRNA expression analysis similar to the qRT-PCR of Example 2-2 was performed. RIP sequencing and RNA expression information based primary component analysis (two dimensional projection using a component resulting in maximum dispersion) was performed. The results are represented as mean ± standard deviation (SD) based on three independent experiments. The statistical significance of the results was evaluated by pairwise T-TEST using R version 3.4.3 (2017-11-30) on Microsoft Excel® software (Microsoft Campus, Redmond, WA, USA). P value < 0.05 was considered statistically significant. As a result, wild-type strain and each resistant strain was clearly distinguished. […] Total RNA was purified in accordance with the protocol for Trizol (Invitrogen) from the original DLD-1 cell strain and each resistant strain (5-FU resistant strain and FTD resistant strain), and then RNA methylation analysis was performed according to the protocol for RIP sequencing described above. Ribo-Zero rRNA Removal Kit (Illumina) was used for the removal of rNRAs.

Take `O=c1[nH]c(=O)n([C@H]2C[C@H](O)[C@@H](CO)O2)cc1C(F)(F)F` [trifluridine]: in data set [1], the IC50 stood at 300 µM.
For the compound “miR-378d (ACUGGACUUGGAGUCAGAAA; chemistry not fully specified; listed as Homo sapiens)”, in data set [2], the “Rate of change, 5-FU resistance (fold)” value is reported as 1.54 fold; the “methylation on microRNA, 5-FU parental strain” value is reported as 144; the “methylation on microRNA, 5-FU resistant strain” value turned out to be 30; the “Rate of change, FTD resistance (fold)” value is on record as 0.36 fold. In addition, in data set [2], the “methylation on microRNA, FTD parental strain” value is given as 80 and the “methylation on microRNA, FTD resistant strain” value is 63.
As to “miR-378e (ACUGGACUUGGAGUCAGGA; chemistry not fully specified; listed as Homo sapiens)”, in data set [2], the “Rate of change, 5-FU resistance (fold)” value worked out at 1.64 fold; the “methylation on microRNA, 5-FU parental strain” value is recorded as 11; the “methylation on microRNA, 5-FU resistant strain” value was 2; the “Rate of change, FTD resistance (fold)” value worked out at 0.86 fold. In data set [2], the “methylation on microRNA, FTD parental strain” value was found to be 3 and the “methylation on microRNA, FTD resistant strain” value is recorded as 6.
As to “miR-378f (ACUGGACUUGGAGCCAGAAG; chemistry not fully specified; listed as Homo sapiens)”, in data set [2], the “Rate of change, 5-FU resistance (fold)” value is 0.67 fold; the “methylation on microRNA, 5-FU parental strain” value worked out at 3; the “methylation on microRNA, 5-FU resistant strain” value came out at 1; the “Rate of change, FTD resistance (fold)” value is on record as “(0.50) fold”. Also, in data set [2], the “methylation on microRNA, FTD parental strain” value turned out to be 2 and the “methylation on microRNA, FTD resistant strain” value amounted to 1.
For the compound “miR-378h (ACUGGACUUGGUGUCAGAUGG; chemistry not fully specified; listed as Homo sapiens)”, in data set [2], the “Rate of change, 5-FU resistance (fold)” value came out at 0.00 fold; the “methylation on microRNA, 5-FU parental strain” value stood at 1; the “methylation on microRNA, 5-FU resistant strain” value turned out to be 0; the “methylation on microRNA, FTD parental strain” value was found to be 0. The “methylation on microRNA, FTD resistant strain” value in data set [2] is recorded as 0.
On to “miR-378i (ACUGGACUAGGAGUCAGAAGG; chemistry not fully specified; listed as Homo sapiens)”, for which, in data set [2], the “Rate of change, 5-FU resistance (fold)” value is 0.50 fold; the “methylation on microRNA, 5-FU parental strain” value came to 18; the “methylation on microRNA, 5-FU resistant strain” value was 1; the “Rate of change, FTD resistance (fold)” value stood at 0.33 fold. In addition, in data set [2], the “methylation on microRNA, FTD parental strain” value came out at 6 and the “methylation on microRNA, FTD resistant strain” value is reported as 3.
In the case of “miR-492 (AGGACCUGCGGGACAAGAUUCUU; chemistry not fully specified; listed as Homo sapiens)”, in data set [2], the “methylation on microRNA, 5-FU parental strain” value stood at 0; the “methylation on microRNA, 5-FU resistant strain” value worked out at 0; the “methylation on microRNA, FTD parental strain” value amounted to 0; the “methylation on microRNA, FTD resistant strain” value worked out at 0.
In the case of “miR-3122 (GUUGGGACAAGAGGACGGUCUU; chemistry not fully specified; listed as Homo sapiens)”, in data set [2], the “methylation on microRNA, 5-FU parental strain” value came out at 0; the “methylation on microRNA, 5-FU resistant strain” value is given as 2; the “methylation on microRNA, FTD parental strain” value was 0; the “methylation on microRNA, FTD resistant strain” value was 0.
With “miR-3131 (UCGAGGACUGGUGGAAGGGCCUU; chemistry not fully specified; listed as Homo sapiens)”, in data set [2], the “Rate of change, 5-FU resistance (fold)” value is “(0.33) fold”; the “methylation on microRNA, 5-FU parental strain” value was found to be 9; the “methylation on microRNA, 5-FU resistant strain” value is 3; the “Rate of change, FTD resistance (fold)” value is listed as “(10.00) fold”. Further, in data set [2], the “methylation on microRNA, FTD parental strain” value is recorded as 1 and the “methylation on microRNA, FTD resistant strain” value came out at 10.
For “miR-3690 (ACCUGGACCCAGCGUAGACAAAG; chemistry not fully specified; listed as Homo sapiens)”, in data set [2], the “methylation on microRNA, 5-FU parental strain” value was determined as 0; the “methylation on microRNA, 5-FU resistant strain” value amounted to 0; the “Rate of change, FTD resistance (fold)” value was determined as 0.00 fold; the “methylation on microRNA, FTD parental strain” value worked out at 1. Further, the “methylation on microRNA, FTD resistant strain” value in data set [2] amounted to 0.
“miR-4435 (AUGGCCAGAGCUCACACAGAGG; chemistry not fully specified; listed as Homo sapiens)”: in data set [2], the “Rate of change 5-FU (fold)” value was 2.38 fold; the “miRNA methylation, 5-FU parental strain” value is listed as 28; the “miRNA methylation, 5-FU resistant strain” value is 14; the “miRNA methylation, FTD parental strain” value is recorded as 46. For the same compound, in data set [2], the “miRNA methylation, FTD resistant strain” value came to 100 and the “Rate of change, FTD (fold)” value was determined as 1.41 fold.
Take “miR-4467 (UGGCGGCGGUAGUUAUGGGCUU; chemistry not fully specified; listed as Homo sapiens)”: in data set [2], the “Rate of change 5-FU (fold)” value is “(1.00) fold”; the “miRNA methylation, 5-FU parental strain” value is listed as 6; the “miRNA methylation, 5-FU resistant strain” value is recorded as 6; the “miRNA methylation, FTD parental strain” value was 1. Also, in data set [2], the “miRNA methylation, FTD resistant strain” value amounted to 12 and the “Rate of change, FTD (fold)” value came out at 8.00 fold.
As to “miR-4754 (AUGCGGACCUGGGUUAGCGGAGU; chemistry not fully specified; listed as Homo sapiens)”, in data set [2], the “Rate of change, 5-FU resistance (fold)” value is “(1.33) fold”; the “methylation on microRNA, 5-FU parental strain” value was found to be 3; the “methylation on microRNA, 5-FU resistant strain” value stood at 4; the “Rate of change, FTD resistance (fold)” value came out at 0.00 fold. Moreover, in data set [2], the “methylation on microRNA, FTD parental strain” value is reported as 4 and the “methylation on microRNA, FTD resistant strain” value turned out to be 0.
